Assays:
[1] = biological target: T1, MAGL (Mus musculus, UniProt O35678); test: In vitro competitive activity-based protein profiling (mouse), MAGL gel band; type: biochemical; settings: for inhibition at 1 µM: read-out: MAGL % inh. 1 μM; for IC50: mouse
T1 construct: Proteomes (mouse brain membrane fraction or cell lysates); from tissue; host or cells: mouse brain membrane fraction (or cell lysates)
T1 sequence (O35678 1-303): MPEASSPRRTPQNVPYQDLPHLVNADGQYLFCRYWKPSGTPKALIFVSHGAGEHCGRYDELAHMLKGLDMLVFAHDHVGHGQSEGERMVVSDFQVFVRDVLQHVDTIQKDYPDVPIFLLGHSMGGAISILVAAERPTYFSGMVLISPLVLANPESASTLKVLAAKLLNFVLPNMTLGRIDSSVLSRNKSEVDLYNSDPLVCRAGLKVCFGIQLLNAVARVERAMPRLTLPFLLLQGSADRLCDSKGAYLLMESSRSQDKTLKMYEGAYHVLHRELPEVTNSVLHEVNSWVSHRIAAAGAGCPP
In short: (§1)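 Residual enzyme activity is taken from in-gel fluorescence after SDS-PAGE. Proteome from mouse brain membranes or cell lysates (total protein 1.0 mg/mL) sees inhibitor for 30 min, then FP-Rh or HT-01 probe (50 μM DMSO stock) for 30 min, both steps at 37 °C.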

[2] = biological target: T2, FAAH (Mus musculus, UniProt O08914); test: In vitro competitive activity-based protein profiling (mouse), FAAH gel band; type: biochemical; settings: for inhibition at 1 µM: read-out: FAAH % inh. 1 μM; for IC50: mouse
T2 construct: Proteomes (mouse brain membrane fraction or cell lysates); from tissue; host or cells: mouse brain membrane fraction (or cell lysates)
T2 sequence (O08914 1-579): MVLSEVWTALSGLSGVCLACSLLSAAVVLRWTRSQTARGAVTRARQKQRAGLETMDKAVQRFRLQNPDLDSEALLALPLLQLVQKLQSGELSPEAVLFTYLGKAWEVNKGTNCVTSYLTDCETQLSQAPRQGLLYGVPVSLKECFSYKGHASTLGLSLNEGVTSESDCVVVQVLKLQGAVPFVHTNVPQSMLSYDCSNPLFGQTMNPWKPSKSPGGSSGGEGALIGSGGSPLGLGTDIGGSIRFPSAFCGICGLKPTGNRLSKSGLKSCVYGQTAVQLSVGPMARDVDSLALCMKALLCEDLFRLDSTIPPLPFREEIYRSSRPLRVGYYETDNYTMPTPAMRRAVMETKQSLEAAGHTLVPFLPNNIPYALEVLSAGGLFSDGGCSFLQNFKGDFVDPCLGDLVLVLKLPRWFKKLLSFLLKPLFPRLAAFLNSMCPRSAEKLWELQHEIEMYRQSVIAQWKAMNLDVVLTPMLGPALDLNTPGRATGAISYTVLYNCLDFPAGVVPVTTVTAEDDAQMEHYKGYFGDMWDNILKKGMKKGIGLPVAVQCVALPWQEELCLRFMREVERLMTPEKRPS
In short: as §1

[3] = biological target: T3, MAGL (Homo sapiens, UniProt Q99685); test: In vitro competitive activity-based protein profiling (human), MAGL gel band; type: biochemical
T3 construct: Proteomes (human prefrontal cortex or cell membrane fractions); from tissue; host or cells: human prefrontal cortex (or cell membrane fractions)
T3 sequence (Q99685 1-303): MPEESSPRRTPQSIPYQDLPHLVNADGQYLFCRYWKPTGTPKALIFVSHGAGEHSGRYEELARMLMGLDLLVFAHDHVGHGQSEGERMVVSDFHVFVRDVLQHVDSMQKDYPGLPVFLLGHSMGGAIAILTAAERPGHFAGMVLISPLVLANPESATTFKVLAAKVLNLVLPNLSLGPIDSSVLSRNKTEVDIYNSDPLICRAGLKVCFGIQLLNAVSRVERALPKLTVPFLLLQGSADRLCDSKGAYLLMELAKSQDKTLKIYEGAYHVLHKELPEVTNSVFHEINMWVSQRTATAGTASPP
Experimental: In Vitro Competitive Activity-Based Protein Profiling (Human).
Proteomes (human prefrontal cortex or cell membrane fractions) (50 μL, 1.0-2.0 mg/mL total protein concentration) were preincubated with varying concentrations of inhibitors at 37° C. After 30 min, FP-Rh or JW912 (1.0 μL, 50 μM in DMSO) was added and the mixture was incubated for another 30 min at room temperature. Reactions were quenched with SDS loading buffer (15 μL—4×) and run on SDS-PAGE. Following gel imaging, serine hydrolase activity was determined by measuring fluorescent intensity of gel bands corresponding to MAGL using ImageJ 1.49k software.

[4] = biological target: T1, MAGL; test: Mouse brain proteomes from inhibitor treated mice (oral gavage, sacrificed 4 h after administration); type: in vivo; settings: read-out: MAGL % inh. 5 mg/kg
In short: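 Brains were collected 4 h after oral gavage dosing of wild-type C57Bl/6J mice, vehicle polyethylene glycol. Proteomes from these brains were then analyzed for MAGL and other serine hydrolase activity.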

SMILES	inhibition at 1 µM [1] [%]	inhibition at 1 µM [2] [%]	IC50 [3] [nM]	inhibition at 1 µM ([3]; at 1 μM, read-out: MAGL human % inh at 1 μM) [%]	IC50 [1] [nM]	IC50 [2] [nM]	inhibition at 5 mg/kg [4] [%]
CS(=O)(=O)Nc1ccn(C(=O)N2CCN(Cc3ccc(C(F)(F)F)cc3-c3ncon3)CC2)n1 [Example 112, N-(1-(4-(2-(1,2,4-oxadiazol-3-yl)-4-(trifluoromethyl)benzyl)piperazine-1-carbonyl)-1H-pyrazol-3-yl)methanesulfonamide]	≥ 75	0 to 25	≤ 100	–	–	–	–
CS(=O)(=O)Nc1ccn(C(=O)N2CCN(Cc3ccc(C(F)(F)F)cc3-c3nnco3)CC2)n1 [Example 113, N-(1-(4-(2-(1,3,4-oxadiazol-2-yl)-4-(trifluoromethyl)benzyl)piperazine-1-carbonyl)-1H-pyrazol-3-yl)methanesulfonamide]	≥ 75	0 to 25	100 to 1000	–	–	–	–
CS(=O)(=O)Nc1ccn(C(=O)N2CCN(Cc3ccc(C(F)(F)F)cc3N3CCN(C(=O)CO)CC3)CC2)n1 [Example 116, N-(1-(4-(2-(4-(2-hydroxyacetyl)piperazin-1-yl)-4-(trifluoromethyl)benzyl)piperazine-1-carbonyl)-1H-pyrazol-3-yl)methanesulfonamide]	≥ 75	0 to 25	≤ 100	–	–	–	–
CS(=O)(=O)Nc1ccn(C(=O)N2CCN(Cc3ccc(C(F)(F)F)cc3C3CCN(CC(=O)O)CC3)CC2)n1 [Example 118, 2-(4-(2-((4-(3-(methylsulfonamido)-1H-pyrazole-1-carbonyl)piperazin-1-yl)methyl)-5-(trifluoromethyl)phenyl)piperidin-1-yl)acetic Acid]	0 to 25	0 to 25	–	25	–	–	–
CS(=O)(=O)Nc1ccn(C(=O)N2CCN(Cc3cccc(-c4cccnc4)c3)CC2)n1 [Example 120, N-(1-(4-(3-(pyridin-3-yl)benzyl)piperazine-1-carbonyl)-1H-pyrazol-3-yl) methanesulfonamide]	≥ 75	0 to 25	≤ 100	–	100 to 1000	1000 to 10000	–
Cc1ccc(CN2CCN(C(=O)n3ccc(NS(C)(=O)=O)n3)CC2)c(N2CCCC2)c1 [Example 137, N-(1-(4-(4-methyl-2-(pyrrolidin-1-yl)benzyl)piperazine-1-carbonyl)-1H-pyrazol-3-yl) methanesulfonamide]	≥ 75	0 to 25	≤ 100	–	100 to 1000	1000 to 10000	–
CS(=O)(=O)Nc1ccn(C(=O)N2CCN(Cc3ccc(C(F)(F)F)cc3N3CCOCC3)CC2)n1 [Example 140, N-(1-(4-(2-morpholino-4-(trifluoromethyl)benzyl)piperazine-1-carbonyl)-1H-pyrazol-3-yl) methanesulfonamide]	≥ 75	0 to 25	≤ 100	–	100 to 1000	1000 to 10000	–
CS(=O)(=O)Nc1ccn(C(=O)N2CCC3(CCCN3Cc3ccc(N4CCCC4)c(C(F)(F)F)c3)CC2)n1 [Example 159, N-(1-(1-(4-(pyrrolidin-1-yl)-3-(trifluoromethyl)benzyl)-1,8-diazaspiro[4.5]decane-8-carbonyl)-1H-pyrazol-3-yl) methanesulfonamide]	≥ 75	0 to 25	100 to 1000	–	–	–	–
CS(=O)(=O)Nc1ccn(C(=O)N2CCN(Cc3ccc(N4CCCC4)c(Cl)c3)CC2)n1 [Example 166, N-(1-(4-(3-chloro-4-(pyrrolidin-1-yl)benzyl)piperazine-1-carbonyl)-1H-pyrazol-3-yl) methanesulfonamide]	≥ 75	0 to 25	≤ 100	–	–	–	–
CS(=O)(=O)Nc1ccn(C(=O)N2CCN(Cc3ccc(N4CCOCC4)c(C(F)(F)F)c3)CC2)n1 [Example 167, N-[1-[(4-[[4-(morpholin-4-yl)-3-(trifluoromethyl)phenyl]methyl]piperazin-1-yl)carbonyl]-1H-pyrazol-3-yl] methanesulfonamide]	≥ 75	0 to 25	≤ 100	–	–	–	–
CS(=O)(=O)Nc1ccn(C(=O)N2CCN(Cc3ccc(C(F)(F)F)cc3N3CCN(C(N)=O)CC3)CC2)n1 [Example 171, 4-(2-((4-(3-(methylsulfonamido)-1H-pyrazole-1-carbonyl)piperazin-1-yl)methyl)-5-(trifluoromethyl)phenyl)piperazine-1-carboxamide]	≥ 75	0 to 25	≤ 100	–	–	–	–
CS(=O)(=O)Nc1ccn(C(=O)N2CCN(Cc3ccc(C(F)(F)F)cc3N3CCN(C4CC4)CC3)CC2)n1 [Example 172, N-(1-(4-(2-(4-cyclopropylpiperazin-1-yl)-4-(trifluoromethyl)benzyl)piperazine-1-carbonyl)-1H-pyrazol-3-yl) methanesulfonamide]	≥ 75	0 to 25	≤ 100	–	–	–	–
CS(=O)(=O)Nc1ccn(C(=O)N2CCN(Cc3ccc(C(F)(F)F)cc3N3CCN(S(C)(=O)=O)CC3)CC2)n1 [Example 173]	≥ 75	0 to 25	≤ 100	–	–	–	–
CC(=O)N1CCN(c2cc(C(F)(F)F)ccc2CN2CCN(C(=O)n3ccc(NS(C)(=O)=O)n3)CC2)CC1 [Example 174, N-(1-(4-(2-(4-acetylpiperazin-1-yl)-4-(trifluoromethyl)benzyl)piperazine-1-carbonyl)-1H-pyrazol-3-yl) methanesulfonamide]	≥ 75	0 to 25	≤ 100	–	–	–	–
CS(=O)(=O)Nc1ccn(C(=O)N2CCC3(CCCN3Cc3ccc(C(F)(F)F)cc3N3CCC(F)CC3)CC2)n1 [Example 178, N-(1-(1-(2-(4-fluoropiperidin-1-yl)-4-(trifluoromethyl)benzyl)-1,8-diazaspiro[4.5]decane-8-carbonyl)-1H-pyrazol-3-yl) methanesulfonamide]	≥ 75	0 to 25	≤ 100	–	–	–	–
CS(=O)(=O)Nc1ccn(C(=O)N2CCN(Cc3cc(C(F)(F)F)ccc3N3CCCC3)CC2)n1 [Example 180, N-(1-(4-(2-(pyrrolidin-1-yl)-5-(trifluoromethyl)benzyl)piperazine-1-carbonyl)-1H-pyrazol-3-yl) methanesulfonamide]	≥ 75	0 to 25	≤ 100	–	–	–	–
CS(=O)(=O)Nc1ccn(C(=O)N2CCN(Cc3ccc(C(F)(F)F)cc3N3CCN(C(=O)N4CCC4)CC3)CC2)n1 [Example 187, N-(1-(4-(2-(4-(azetidine-1-carbonyl)piperazin-1-yl)-4-(trifluoromethyl)benzyl)piperazine-1-carbonyl)-1H-pyrazol-3-yl) methanesulfonamide]	≥ 75	0 to 25	100 to 1000	–	–	–	–
CS(=O)(=O)Nc1ccn(C(=O)N2CCN(Cc3cccc(Cl)c3N3CCC4(CCOCC4)C3)CC2)n1 [Example 290, N-(1-(4-(3-chloro-2-(8-oxa-2-azaspiro[4.5]decan-2-yl)benzyl)piperazine-1-carbonyl)-1H-pyrazol-3-yl) methanesulfonamide]	≥ 75	0 to 25	–	–	≤ 100	1000 to 10000	50 to 75

From patent US10519134B2, “Pyrazole compounds and methods of making and using same” (Lundbeck La Jolla Research Center, Inc., priority 2015, dated 2019)
